Test results taken from PubChem BioAssay (NCI).
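Compound exposure: 48 hours, 5 concentrations, 96-well plates. GI50 = concentration required for 50% inhibition of growth. TGI: concentration producing complete growth inhibition.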

Tests used:
Assay in all cases: DTP human tumour cell line panel, 48 h
COLO 205 colon = test system: COLO 205 colon
IGROV1 ovarian = test system: IGROV1 ovarian
M14 melanoma = test system: M14 melanoma
HCC-2998 colon = test system: HCC-2998 colon
SNB-19 CNS = test system: SNB-19 CNS
NCI/ADR-RES ovarian = test system: NCI/ADR-RES ovarian
NCI-H522 lung = test system: NCI-H522 lung
OVCAR-5 ovarian = test system: OVCAR-5 ovarian
UO-31 renal = test system: UO-31 renal
MDA-MB-231 breast = test system: MDA-MB-231 breast
ACHN renal = test system: ACHN renal
SR leukemia = test system: SR leukemia
UACC-62 melanoma = test system: UACC-62 melanoma
HT29 colon = test system: HT29 colon
HS 578T breast = test system: HS 578T breast
TK-10 renal = test system: TK-10 renal
HCT-15 colon = test system: HCT-15 colon
A498 renal = test system: A498 renal
MOLT-4 leukemia = test system: MOLT-4 leukemia
KM12 colon = test system: KM12 colon
SK-MEL-2 melanoma = test system: SK-MEL-2 melanoma
OVCAR-4 ovarian = test system: OVCAR-4 ovarian
HOP-92 NSCLC = test system: HOP-92 NSCLC
OVCAR-3 ovarian = test system: OVCAR-3 ovarian
NCI-H226 lung = test system: NCI-H226 lung
CCRF-CEM leukemia = test system: CCRF-CEM leukemia
EKVX NSCLC = test system: EKVX NSCLC
RPMI-8226 leukemia = test system: RPMI-8226 leukemia
SN12C renal = test system: SN12C renal
SNB-75 CNS = test system: SNB-75 CNS
U251 CNS = test system: U251 CNS
HL-60(TB) leukemia = test system: HL-60(TB) leukemia
MDA-MB-435 = test system: MDA-MB-435
PC-3 prostate = test system: PC-3 prostate
SF-295 CNS = test system: SF-295 CNS
DU-145 prostate = test system: DU-145 prostate
SF-539 CNS = test system: SF-539 CNS
T-47D breast = test system: T-47D breast
MCF7 breast = test system: MCF7 breast
RXF 393 renal = test system: RXF 393 renal
SK-OV-3 ovarian = test system: SK-OV-3 ovarian
HOP-62 NSCLC = test system: HOP-62 NSCLC
BT-549 breast = test system: BT-549 breast
SK-MEL-28 melanoma = test system: SK-MEL-28 melanoma
NCI-H460 lung = test system: NCI-H460 lung
CAKI-1 renal = test system: CAKI-1 renal
K-562 leukemia = test system: K-562 leukemia
SF-268 CNS = test system: SF-268 CNS
786-0 renal = test system: 786-0 renal
UACC-257 melanoma = test system: UACC-257 melanoma
A549 NSCLC = test system: A549 NSCLC
SW-620 colon = test system: SW-620 colon
MALME-3M melanoma = test system: MALME-3M melanoma
OVCAR-8 ovarian = test system: OVCAR-8 ovarian
SK-MEL-5 melanoma = test system: SK-MEL-5 melanoma

`CCNC(=O)Oc1ccc(/C(=C(/C)c2ccccc2)c2ccc(OCCN3CCCCCC3)cc2)cc1` was tested, and the GI50 (COLO 205 colon) was 1.56 µM, the TGI (COLO 205 colon) was 2.98 µM and the GI50 (IGROV1 ovarian) was 3.64 µM. For the same molecule, the TGI (IGROV1 ovarian) was 14.8 µM, the GI50 (M14 melanoma) was 1.8 µM and the TGI (M14 melanoma) was 3.62 µM. It also gave a GI50 (HCC-2998 colon) of 2 µM, a TGI (HCC-2998 colon) of 3.89 µM and a GI50 (SNB-19 CNS) of 3.82 µM. It also gave a TGI (SNB-19 CNS) of 13.4 µM, a GI50 (NCI/ADR-RES ovarian) of 2.22 µM and a TGI (NCI/ADR-RES ovarian) of 6.4 µM. For the same molecule, the GI50 (NCI-H522 lung) was 1.8 µM, the TGI (NCI-H522 lung) was 3.75 µM and the GI50 (OVCAR-5 ovarian) was 4.35 µM. The TGI (OVCAR-5 ovarian) was 17.8 µM, the GI50 (UO-31 renal) was 1.52 µM and the TGI (UO-31 renal) was 4.43 µM. The GI50 (MDA-MB-231 breast) was 2.25 µM, the TGI (MDA-MB-231 breast) was 4.84 µM and the GI50 (ACHN renal) was 3.37 µM. It also gave a TGI (ACHN renal) of 10.6 µM, a GI50 (SR leukemia) of 2.04 µM and a TGI (SR leukemia) of 6.59 µM. It also gave a GI50 (UACC-62 melanoma) of 1.91 µM, a TGI (UACC-62 melanoma) of 3.87 µM and a GI50 (HT29 colon) of 1.27 µM. It also gave a TGI (HT29 colon) of 3.27 µM, a GI50 (HS 578T breast) of 1.91 µM and a TGI (HS 578T breast) of 4.67 µM. For the same molecule, the GI50 (TK-10 renal) was 5.83 µM, the TGI (TK-10 renal) was 19.9 µM and the GI50 (HCT-15 colon) was 1.53 µM. It also gave a TGI (HCT-15 colon) of 3.33 µM, a GI50 (A498 renal) of 10.4 µM and a TGI (A498 renal) of 24.7 µM. It also gave a GI50 (MOLT-4 leukemia) of 2.4 µM, a TGI (MOLT-4 leukemia) of 12.3 µM and a GI50 (KM12 colon) of 3 µM. For the same molecule, the TGI (KM12 colon) was 11.1 µM, the GI50 (SK-MEL-2 melanoma) was 2.48 µM and the TGI (SK-MEL-2 melanoma) was 6.76 µM. The GI50 (OVCAR-4 ovarian) was 3.05 µM, the TGI (OVCAR-4 ovarian) was 11.8 µM and the GI50 (HOP-92 NSCLC) was 1.23 µM. It also gave a TGI (HOP-92 NSCLC) of 4.62 µM, a GI50 (OVCAR-3 ovarian) of 2.87 µM and a TGI (OVCAR-3 ovarian) of 8.2 µM. The GI50 (NCI-H226 lung) was 2.97 µM, the TGI (NCI-H226 lung) was 10.8 µM and the GI50 (CCRF-CEM leukemia) was 2.92 µM. For the same molecule, the TGI (CCRF-CEM leukemia) was 28.7 µM, the GI50 (EKVX NSCLC) was 3.24 µM and the TGI (EKVX NSCLC) was 12.2 µM. The GI50 (RPMI-8226 leukemia) was 1.95 µM, the TGI (RPMI-8226 leukemia) was 4.65 µM and the GI50 (SN12C renal) was 2.56 µM. The TGI (SN12C renal) was 8.36 µM, the GI50 (SNB-75 CNS) was 1.85 µM and the TGI (SNB-75 CNS) was 4.36 µM. It also gave a GI50 (U251 CNS) of 1.58 µM, a TGI (U251 CNS) of 3.2 µM and a GI50 (HL-60(TB) leukemia) of 1.8 µM. It also gave a TGI (HL-60(TB) leukemia) of 6.15 µM, a GI50 (MDA-MB-435) of 1.7 µM and a TGI (MDA-MB-435) of 3.29 µM. The GI50 (PC-3 prostate) was 1.74 µM, the TGI (PC-3 prostate) was 4.19 µM and the GI50 (SF-295 CNS) was 1.98 µM. The TGI (SF-295 CNS) was 3.94 µM, the GI50 (DU-145 prostate) was 4.92 µM and the TGI (DU-145 prostate) was 20.3 µM. It also gave a GI50 (SF-539 CNS) of 1.74 µM, a TGI (SF-539 CNS) of 3.21 µM and a GI50 (T-47D breast) of 1.15 µM. It also gave a TGI (T-47D breast) of 6.04 µM, a TGI (MCF7 breast) of 2.6 µM and a GI50 (RXF 393 renal) of 1.65 µM. The TGI (RXF 393 renal) was 3.27 µM, the GI50 (SK-OV-3 ovarian) was 2.74 µM and the TGI (SK-OV-3 ovarian) was 8.06 µM. It also gave a GI50 (HOP-62 NSCLC) of 2.05 µM, a TGI (HOP-62 NSCLC) of 4.82 µM and a GI50 (BT-549 breast) of 1.71 µM. For the same molecule, the TGI (BT-549 breast) was 3.38 µM, the GI50 (SK-MEL-28 melanoma) was 1.8 µM and the TGI (SK-MEL-28 melanoma) was 3.62 µM. The GI50 (NCI-H460 lung) was 1.99 µM, the TGI (NCI-H460 lung) was 4.14 µM and the GI50 (CAKI-1 renal) was 1.94 µM. It also gave a TGI (CAKI-1 renal) of 4.28 µM, a GI50 (K-562 leukemia) of 1.82 µM and a TGI (K-562 leukemia) of over 100 µM. For the same molecule, the GI50 (SF-268 CNS) was 4 µM, the TGI (SF-268 CNS) was 18.6 µM and the GI50 (786-0 renal) was 1.71 µM. The TGI (786-0 renal) was 3.46 µM, the GI50 (UACC-257 melanoma) was 1.88 µM and the TGI (UACC-257 melanoma) was 3.87 µM. For the same molecule, the GI50 (A549 NSCLC) was 3.26 µM, the TGI (A549 NSCLC) was 13.1 µM and the GI50 (SW-620 colon) was 2.11 µM. It also gave a TGI (SW-620 colon) of 5.15 µM, a GI50 (MALME-3M melanoma) of 1.8 µM and a TGI (MALME-3M melanoma) of 3.47 µM. It also gave a GI50 (OVCAR-8 ovarian) of 3.07 µM, a TGI (OVCAR-8 ovarian) of 10.7 µM and a GI50 (SK-MEL-5 melanoma) of 1.74 µM. It also gave a TGI (SK-MEL-5 melanoma) of 3.16 µM.
